Measured values from patent US9802885B2, “Substituted cyclohexane compounds” (TAKASAGO INTERNATIONAL CORPORATION (USA), priority 2011, dated 2017).
“Also recorded” adds a separate entry of the source.

Columns and labels:
[1] = Organoleptic properties of the compounds of Formulas I, II and III (Tables 1-3); details: in vivo
From the text: For example, the compounds of the presently disclosed subject matter impart cooling, warming, burning, tingling, numbing, salivating, musty, bitter, and/or astringent sensation. In addition, the compounds of the presently disclosed subject matter can impart tropical, fruity (e.g., berry), minty, phenolic, and vegetable (e.g., peppery) notes as well as creaminess and sweetness to flavor ingredients. The organoleptic properties of certain compounds of Formulas I, II, and III are described in Tables 1, 2, and 3, respectively.

[2] = generally known; cited from earlier work
trained evaluators [3] = test: Rated warming level of hot and spicy flavor composition in water, swish and spit (Example 17); type: in vivo
Experimental: Each evaluator was asked to rate the warming level in the mouth on a scale of 1-9 over a 5 minute period after swishing & spitting the sample.

trained evaluators [4] = test: Enhancement of the warming effect of vanillyl butyl ether (VBE), heat intensity and preference (Example 20); type: in vivo
Experimental: Compound 1 was tested for its synergistic enhancement of the warming effect from pungent compound vanillyl butyl ether (VBE). A stock solution of 1% VBE in ethanol was prepared. This stock solution was then added at 0.2% in water to produce a 20 ppm tasting solution (Control). To subsequent 20 ppm tasting solutions was added 2.5 ppm of Compound 1 (Formula G) and 2.5 ppm WS-3 (Formula H). Ten trained evaluators were asked to rate heat intensity in the mouth and rank the three samples for preference after swishing and spitting the sample.

[5] = test system: expertly trained evaluators; test: Tasting of mouthwatering composition in water (Example 19); type: in vivo; details: 0.5% w/w Compound 10, 0.05% in water (2.5 ppm)
trained evaluators [6] = test: Tasting of wasabi-type flavor composition in water (Example 18); type: in vivo
From the text: Formula C was selected as being preferred by 7 out of the 8 evaluators.

[7] = test system: expertly trained evaluators; test: Rated cooling intensity of mouth-rinse composition (Example 21); type: in vivo
Experimental: Compound 8 was tested in the following mouth-rinse composition Formula J and evaluated over a 20 minute period by five expertly trained evaluators, compared to two other mint flavor compositions, a Control and Formula K that contains WS-3 as shown below. The compositions were each dissolved at 0.1% in the following mouth-rinse base (50 ppm dosage of Compound 8 & WS-3 respectively). The evaluators were asked to rate cooling intensity on a scale of 1-9 in the mouth at 0, 0.5, 1, 5, 10, and 20 minutes.

SMILES | Organoleptic Properties [1] | further results
C=C(C)[C@@H]1CC[C@@H](C)C[C@H]1C(=O)NCC(=O)OCC [Compound 6, (1R,2R,5R)-ethyl 2-(5-methyl-2-(prop-1-en-2-yl)cyclohexanecarboxamido)acetate] | bitter, cooling, irritation | –
C=C(C)[C@@H]1CC[C@@H](C)C[C@H]1OC(=O)C(C)O (stereo partly drawn) [Compound 11, (1R,2S,5R)-5-methyl-2-(prop-1-en-2-yl)cyclohexyl 2-hydroxypropanoate] | minty, bitter, cooling | –
CCNC(=O)C1CC(C)CCC1C(C)C (centres unmarked) [WS-3, N-ethyl-5-methyl-2-isopropylcyclohexanecarboxamide] | – | sensation provided by menthyl analog [2]: clean cool
C=C(C)[C@@H]1CC[C@@H](C)C[C@H]1C(=O)NCC [Compound 1, (1R,2R,5R)—N-ethyl-5-methyl-2-(prop-1-en-2-yl)cyclohexanecarboxamide] | cooling, tingling, and numbing sensation | heat/warming perception compared to control Formula B (trained evaluators [3]; 0.5% w/w Compound 1): enhance the initial heat perception; heat/warming perception compared to control Formula B (trained evaluators [3]; 0.5% w/w Compound 1, listed as N-ethyl-5-methyl-2-(prop-1-en-2-yl)cyclohexanecarboxamide): enhances the warming perception; enhancement of the warming effect of pungent compounds compared to WS-3 (trained evaluators [4]): enhances the warming effect of pungent compounds much better
C=C(C)[C@@H]1CC[C@@H](C)C[C@H]1C(=O)NC(C)CC (stereo partly drawn) [Compound 5, (1R,2R,5R)—N-(sec-butyl)-5-methyl-2-(prop-1-en-2-yl)cyclohexanecarboxamide] | bitter, cooling | –
C=C(C)[C@@H]1CC[C@@H](C)C[C@H]1OCC(=O)O [Compound 14, (1R,2S,5R)-2-((5-methyl-2-(prop-1-en-2-yl)cyclohexyl)oxy)acetic acid] | creamy; also recorded: fruity, | –
C=C(C)[C@@H]1CC[C@@H](C)C[C@H]1OC(=O)CC(C)=O [Compound 12, (1R,2S,5R)-5-methyl-2-(prop-1-en-2-yl)cyclohexyl 3-oxobutanoate] | bitter, fruity | –
C=C(C)[C@@H]1CC[C@@H](C)C[C@H]1OC(=O)CCCC(=O)O [Compound 10, (1R,2S,5R)-5-((−5-methyl-2-(prop-1-en-2-yl)cyclohexyl)oxy)-5-oxopentanoic acid] | sweet, fruity, slight; also recorded: cooling | mouthwatering effect compared to control Formula F [5]: extended cooling and increased astringency
C=C(C)[C@@H]1CC[C@@H](C)C[C@H]1C(=O)NC(C)C [Compound 3, (1R,2R,5R)—N-isopropyl-5-methyl-2-(prop-1-en-2-yl)cyclohexanecarboxamide] | slight cooling | –
C=C(C)[C@@H]1CC[C@@H](C)C[C@H]1OCC(=O)NCC(C)C [Compound 15, (1R,2S,5R)—N-isobutyl-2-((5-methyl-2-(prop-1-en-2-yl)cyclohexyl)oxy)acetamide] | bitter,; also recorded: tingle/; also recorded: burning | –
C=C(C)[C@@H]1CC[C@@H](C)C[C@H]1C(=O)Nc1ccc(CC#N)cc1 [Compound 8, (1R,2R,5R)—N-(4-(cyanomethyl)phenyl)-5-methyl-2-(prop-1-en-2-yl)cyclohexanecarboxamide] | phenolic, strong burning | burning sensation and character compared to control Formula D (trained evaluators [6]; 0.5% w/w Compound 8): more intense and lingering burning sensation; burning sensation and character compared to control Formula D (trained evaluators [6]; 0.5% w/w Compound 8, listed as N-(4-(cyanomethyl)phenyl)-5-methyl-2-(prop-1-en-2-yl)cyclohexanecarboxamide): improved lingering burning sensation; cooling perception of the mouth-rinse composition compared to Control and WS-3 (Formula K) [7]: enhances and lengthens the cooling of a mouth-rinse composition better than WS-3
C=C(C)[C@@H]1CC[C@@H](C)C[C@H]1OC(=O)CC(C)O (stereo partly drawn) [Compound 13, (1R,2S,5R)-5-methyl-2-(prop-1-en-2-yl)cyclohexyl 3-hydroxybutanoate] | bitter, mild peppery | –
C=C(C)[C@@H]1CC[C@@H](C)C[C@H]1C(=O)NC1CC1 [Compound 2, (1R,2R,5R)—N-cyclopropyl-5-methyl-2-(prop-1-en-2-yl)cyclohexanecarboxamide] | slight cooling, salivating | –
C=C(C)[C@@H]1CC[C@@H](C)C[C@H]1OC(=O)CCC(=O)O [Compound 9, (1R,2S,5R)-4-((−5-methyl-2-(prop-1-en-2-yl)cyclohexyl)oxy)-4-oxobutanoic acid] | fruity, chemical, slight; also recorded: cooling/burn | –
C=C(C)[C@@H]1CC[C@@H](C)C[C@H]1C(=O)Nc1ccc(OC)cc1 [Compound 7, (1R,2R,5R)—N-(4-methoxyphenyl)-5-methyl-2-(prop-1-en-2-yl)cyclohexanecarboxamide] | musty, astringent, slight cooling | –
C=C(C)[C@@H]1CC[C@@H](C)C[C@H]1C(=O)NC(C)(C)C [Compound 4, (1R,2R,5R)—N-(tert-butyl)-5-methyl-2-(prop-1-en-2-yl)cyclohexanecarboxamide] | slight burn, warming,; also recorded: irritation | –
